As usually defined, the pIC50 is the IC50 on a negative log10 scale, so that one unit is a factor of ten. Low values mean a high IC50, high ones a low IC50.

Our source for the IC50 values is patent US20260374773A1, “MULTI-CYCLIC IRAK AND FLT3 INHIBITING COMPOUNDS AND USES THEREOF” (CHILDREN'S HOSPITAL MEDICAL CENTER, priority 2022, published 2026).

Common to all, as to format: biochemical
Holding throughout (conditions): isolated kinase, 33P-ATP, 2 h

The target of one test is IRAK1 (Homo sapiens, UniProt P51617). Kind of test: RBC HotSpot kinase inhibition assay, IRAK1. An outline of the steps:
(§1)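 Isolated kinases, possibly truncated or lacking regulatory receptor domains, in 20 mM Hepes pH 7.5, 10 mM MgCl2, 1 mM EGTA, 0.01% Brij35, 2 mM DTT, 1% DMSO with substrate and cofactors. Compound preincubated 20 min, then ^33P-ATP added; 2 h at room temperature, read by P81 filter binding.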

Another test concerns the target T1, FLT3 (Homo sapiens, UniProt P36888).
T1 sequence (P36888 27-993): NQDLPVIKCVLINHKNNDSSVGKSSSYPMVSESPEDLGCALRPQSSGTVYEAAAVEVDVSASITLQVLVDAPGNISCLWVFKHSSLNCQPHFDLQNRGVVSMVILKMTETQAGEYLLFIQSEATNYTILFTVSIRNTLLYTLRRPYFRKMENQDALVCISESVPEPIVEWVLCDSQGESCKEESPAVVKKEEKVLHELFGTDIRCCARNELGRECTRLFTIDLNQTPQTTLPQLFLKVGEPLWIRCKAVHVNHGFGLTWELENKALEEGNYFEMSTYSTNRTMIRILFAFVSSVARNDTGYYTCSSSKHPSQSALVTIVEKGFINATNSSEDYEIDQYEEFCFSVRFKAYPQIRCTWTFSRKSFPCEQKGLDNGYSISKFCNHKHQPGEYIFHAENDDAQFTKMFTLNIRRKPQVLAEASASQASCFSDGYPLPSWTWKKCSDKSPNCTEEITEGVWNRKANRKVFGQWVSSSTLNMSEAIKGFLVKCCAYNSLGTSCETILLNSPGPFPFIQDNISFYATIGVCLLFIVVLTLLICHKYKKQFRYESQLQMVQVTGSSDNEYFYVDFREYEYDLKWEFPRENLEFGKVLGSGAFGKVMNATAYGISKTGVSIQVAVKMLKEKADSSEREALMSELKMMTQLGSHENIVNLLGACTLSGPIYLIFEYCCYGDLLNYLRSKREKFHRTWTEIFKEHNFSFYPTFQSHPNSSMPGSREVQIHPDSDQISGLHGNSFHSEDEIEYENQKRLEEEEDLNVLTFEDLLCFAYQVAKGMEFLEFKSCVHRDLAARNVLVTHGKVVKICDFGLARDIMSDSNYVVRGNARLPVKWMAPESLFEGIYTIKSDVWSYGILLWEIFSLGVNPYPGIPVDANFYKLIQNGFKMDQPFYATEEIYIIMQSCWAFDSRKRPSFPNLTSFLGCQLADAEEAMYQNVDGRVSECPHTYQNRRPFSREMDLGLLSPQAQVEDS
Kind of test: RBC HotSpot kinase inhibition assay, FLT3. An outline of the steps:
as §1

The target in the next test is T2, IRAK4 (Homo sapiens, UniProt Q9NWZ3).
T2 sequence (Q9NWZ3 1-460): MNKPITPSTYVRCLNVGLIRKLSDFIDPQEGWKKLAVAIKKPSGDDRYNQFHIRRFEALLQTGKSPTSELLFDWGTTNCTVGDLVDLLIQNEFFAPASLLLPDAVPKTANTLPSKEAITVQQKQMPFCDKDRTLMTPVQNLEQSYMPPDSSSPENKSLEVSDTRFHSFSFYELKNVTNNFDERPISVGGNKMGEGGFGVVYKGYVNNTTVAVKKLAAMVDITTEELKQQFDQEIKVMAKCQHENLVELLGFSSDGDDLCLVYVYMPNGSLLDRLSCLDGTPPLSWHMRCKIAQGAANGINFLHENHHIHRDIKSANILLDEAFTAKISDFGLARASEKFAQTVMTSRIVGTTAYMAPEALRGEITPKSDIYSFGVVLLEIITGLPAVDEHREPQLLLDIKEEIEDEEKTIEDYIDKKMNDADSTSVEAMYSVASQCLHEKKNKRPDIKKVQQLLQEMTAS
Nature of the test: RBC HotSpot kinase inhibition assay, IRAK4. The method in brief:
as §1

pIC50: −log10 of the molar value.

Sequence of IRAK1 (P51617 whole entry, the tested form may be a part): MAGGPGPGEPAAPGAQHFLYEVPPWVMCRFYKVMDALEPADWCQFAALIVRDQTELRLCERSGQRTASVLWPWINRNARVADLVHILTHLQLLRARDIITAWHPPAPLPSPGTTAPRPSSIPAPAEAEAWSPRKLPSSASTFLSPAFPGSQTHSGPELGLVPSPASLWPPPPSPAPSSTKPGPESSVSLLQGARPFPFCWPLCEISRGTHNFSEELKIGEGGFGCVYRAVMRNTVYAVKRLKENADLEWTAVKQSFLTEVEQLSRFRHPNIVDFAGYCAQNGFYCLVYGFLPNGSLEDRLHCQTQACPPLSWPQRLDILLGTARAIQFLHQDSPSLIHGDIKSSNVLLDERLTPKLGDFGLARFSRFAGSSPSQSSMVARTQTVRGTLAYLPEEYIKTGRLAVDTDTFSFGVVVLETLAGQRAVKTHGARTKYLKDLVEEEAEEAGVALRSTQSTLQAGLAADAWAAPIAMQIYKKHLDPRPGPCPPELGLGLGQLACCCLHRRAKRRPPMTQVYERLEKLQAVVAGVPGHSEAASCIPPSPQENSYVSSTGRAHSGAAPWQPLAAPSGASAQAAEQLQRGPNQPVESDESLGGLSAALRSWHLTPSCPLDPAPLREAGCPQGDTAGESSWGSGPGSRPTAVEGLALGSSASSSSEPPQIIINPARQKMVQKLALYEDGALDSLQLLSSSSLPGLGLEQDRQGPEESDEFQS

Consider `COc1cn2ncc(-c3nc(N[C@@H]4CCCNC4)ncc3F)c2nc1C1CC1` [Compound 14a, (R)-4-(5-cyclopropyl-6-methoxypyrazolo[1,5-a]pyrimidin-3-yl)-5-fluoro-N-(piperidin-3-yl)pyrimidin-2-amine], for which the negative-log IC50 (pIC50) on IRAK1 (Table 17) was 9.05; at FLT3 (Table 17), greater than 9.30; against IRAK4 (Table 17) it was 9.22.

For `COc1cn2ncc(-c3nc(N[C@H]4CNCC[C@@H]4F)ncc3F)c2nc1C1CC1` [Compound 15a, 4-(5-cyclopropyl-6-methoxypyrazolo[1,5-a]pyrimidin-3-yl)-5-fluoro-N-((3S,4S)-4-fluoropiperidin-3-yl)pyrimidin-2-amine], the pIC50 on IRAK1 (Table 17) was greater than 9.30; on FLT3 (Table 17), 9.15; against IRAK4 (Table 17), 9.15.

Regarding `COc1cn2ncc(-c3cccc(N[C@H]4CNC[C@@H]4F)n3)c2nc1C1CC1` [Compound 19, 6-(5-cyclopropyl-6-methoxypyrazolo[1,5-a]pyrimidin-3-yl)-N-((3S,4S)-4-fluoropyrrolidin-3-yl)pyridin-2-amine], the negative logarithm of the IC50 (pIC50) was 7.35 on IRAK1 (Table 11), greater than 9.30 against FLT3 (Table 11) and 8.70 on IRAK4 (Table 11).

In the case of `COc1cn2ncc(-c3cccc(N[C@@H]4CCCNC4)n3)c2nc1C1CC1` [Compound 20, (R)-6-(5-cyclopropyl-6-methoxypyrazolo[1,5-a]pyrimidin-3-yl)-N-(piperidin-3-yl)pyridin-2-amine], the results for the pIC50 on IRAK1 (Table 11), on FLT3 (Table 11) and against IRAK4 (Table 11) were 6.84, greater than 9.30 and 8.30, respectively.

In the case of `COc1cn2ncc(-c3cccc(N[C@H]4CNCC[C@@H]4F)n3)c2nc1C1CC1` [Compound 21, 6-(5-cyclopropyl-6-methoxypyrazolo[1,5-a]pyrimidin-3-yl)-N-((3S,4S)-4-fluoropiperidin-3-yl)pyridin-2-amine], the pIC50 at IRAK1 (Table 11) is 7.42; at FLT3 (Table 11), greater than 9.30; against IRAK4 (Table 11), 8.70.

For `COc1cn2ncc(-c3nc(N[C@H]4CNCC[C@@H]4F)c(F)cc3F)c2nc1C1CC1` [Compound 22, 6-(5-cyclopropyl-6-methoxypyrazolo[1,5-a]pyrimidin-3-yl)-3,5-difluoro-N-((3S,4S)-4-fluoropiperidin-3-yl)pyridin-2-amine], the negative logarithm of the IC50 (pIC50) on IRAK1 (Table 11), at FLT3 (Table 11) and on IRAK4 (Table 11) was greater than 9.30 each time.

Consider `COc1cn2ncc(-c3nc(N[C@H]4CNC[C@@H]4F)c(F)cc3F)c2nc1C1CC1` [Compound 24, 6-(5-cyclopropyl-6-methoxypyrazolo[1,5-a]pyrimidin-3-yl)-3,5-difluoro-N-((3S,4S)-4-fluoropyrrolidin-3-yl)pyridin-2-amine], for which the pIC50 on IRAK1 (Table 11) is 8.70; at FLT3 (Table 11), greater than 9.30; on IRAK4 (Table 11) it was greater than 9.30.
